Results reported in patent US20260184712A1, “Heterocyclic Compounds as ENT Inhibitors and Compounds for Use in the Treatment of Cancers” (iTeos Belgium SA, priority 2022, published 2026).

Molecular target: T1, human ENT1 (Homo sapiens, UniProt Q99808)
T1 construct: JAR cells expressing ENT1 were purchased from ATCC; host or cells: JAR cells
T1 sequence (Q99808 1-456): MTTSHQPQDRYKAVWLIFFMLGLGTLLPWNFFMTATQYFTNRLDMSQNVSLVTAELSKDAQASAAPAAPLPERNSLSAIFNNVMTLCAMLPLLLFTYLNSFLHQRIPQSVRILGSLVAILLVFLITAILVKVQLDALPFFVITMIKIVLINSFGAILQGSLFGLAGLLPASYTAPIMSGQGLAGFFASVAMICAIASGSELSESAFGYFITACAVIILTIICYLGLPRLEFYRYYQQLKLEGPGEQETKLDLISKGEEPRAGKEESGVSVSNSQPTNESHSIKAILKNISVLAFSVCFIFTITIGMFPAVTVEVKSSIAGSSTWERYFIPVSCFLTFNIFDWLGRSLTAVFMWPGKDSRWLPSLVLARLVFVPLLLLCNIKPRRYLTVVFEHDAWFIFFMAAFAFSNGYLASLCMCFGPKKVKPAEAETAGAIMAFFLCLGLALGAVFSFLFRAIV
Experiment: ENT1 binding assay (competition with Sahenta-DY647 on JAR cells)
Settings: competition with SAHENTA-DY647 binding; IC50 categorized; read-out: Binding Assay IC50
Outline: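 Fluorescent-tracer displacement: compound incubated with JAR cells 30 min, 4 °C, before Sahenta-DY647 (100 nM) for another 30 min, 4 °C, in Hepes-buffered HBSS with 0.1% BSA. Bound tracer read at 670 nm after washes; IC50 from four-parameter fit, reported as mean of pIC50 values.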

| SMILES | IC50 [µM] |
| --- | --- |
| C[C@H]1O[C@@H](n2c(NC3CCOCC3)nc3c(OCc4ccc(C#N)cc4)ncnc32)[C@H](O)[C@@H]1O [Compound 73] | < 0.001 |
| C[C@H]1O[C@@H](n2c(N[C@H]3CCC(F)(F)C3)nc3c(OCc4ccc(C#N)cc4)ncnc32)[C@H](O)[C@@H]1O [Compound 82] | 0.001 to 0.02 |
| C[C@H]1O[C@@H](n2c(NC3CCOCC3)nc3c(OCc4ccc(OC(F)F)nc4)ncnc32)[C@H](O)[C@@H]1O [Compound 75] | < 0.001 |
| C[C@H]1O[C@@H](n2c(NC3CCCC3)nc3c(OCc4ccc([N+](=O)[O-])cc4)ncnc32)[C@H](O)[C@@H]1O [Compound 6] | < 0.001 |
| C[C@H]1O[C@@H](n2cnc3c(OCc4ccc([N+](=O)[O-])cc4)ncnc32)[C@H](O)[C@@H]1O [Compound 166] | 0.02 to 0.5 |
| C[C@H]1O[C@@H](n2cnc3c(N4CCc5ccc([N+](=O)[O-])cc5C4)ncnc32)[C@H](O)[C@@H]1O [Compound 151] | 0.001 to 0.02 |
| C[C@H]1O[C@@H](n2cnc3c(OCc4ccc(OC(F)F)cc4)ncnc32)[C@H](O)[C@@H]1O [Compound 173] | 0.02 to 0.5 |
| C[C@H]1O[C@@H](n2c(NC3CCC(O)CC3)nc3c(OCc4ccc([N+](=O)[O-])cc4)ncnc32)[C@H](O)[C@@H]1O (stereo partly shown) [Compound 28] | < 0.001 |
| C[C@H]1O[C@@H](n2cnc3c(SCc4ccc([N+](=O)[O-])cc4)ncnc32)[C@H](O)[C@@H]1O [Compound 147] | 0.001 to 0.02 |
| OCCOC[C@H]1O[C@@H](n2cnc3c(OCc4ccc(OC(F)(F)F)cc4)ncnc32)[C@H](O)[C@@H]1O [Compound 175] | 0.02 to 0.5 |
